Here are results for one compound from ChEMBL document CHEMBL1649150, “P-glycoprotein-mediated transport of moxifloxacin in a Calu-3 lung epithelial cell model” (Antimicrob Agents Chemother, 2009).

The test system of series [1] is P-glycoprotein. In words: Activity at P-glycoprotein in human Calu3 cells. The format is ADME, cell-based, Calu-3.
The subject of series [2] is P-glycoprotein. The series is described as follows: P-glycoprotein-mediated transport in human Calu3 cells expressing P-glycoprotein assessed as maximum apparent permeability from apical to basolateral side at 50 uM in presence of in presence of 25 uM of p-glycoprotein and MRP transport inducer rifampin. The format is ADME, cell-based, Calu-3.
A short description of series [3]: Cmax in healthy human at 400 […]. Format: ADME, organism-based. The conditions noted are these: in vivo.
A short description of series [4]: P-glycoprotein-mediated transport in human Calu3 cells assessed as efflux ratio of permeability from […] side at 50 uM. The conditions noted are these: calu-3, 50 µM. Format: ADME, cell-based.
For series [5], the system named is P-glycoprotein. The series is described as follows: P-glycoprotein-mediated transport in human Calu3 cells expressing P-glycoprotein assessed as maximum apparent permeability from basolateral to apical side. Format: ADME, cell-based, Calu-3.
The subject of series [6] is P-glycoprotein. The series is described as follows: P-glycoprotein-mediated transport in human Calu3 cells expressing P-glycoprotein assessed as minimum apparent permeability from basolateral to apical side. The format is ADME, cell-based, Calu-3.
The test system of series [7] is P-glycoprotein. The series is described as follows: P-glycoprotein-mediated transport in human Calu3 cells expressing P-glycoprotein assessed as maximum apparent permeability from apical to basolateral side at 50 uM in presence of in presence of 10 uM of p-glycoprotein and MRP transport inducer rifampin. The format is ADME, cell-based, Calu-3.
Series [8] has as its system P-glycoprotein. The series is described as follows: P-glycoprotein-mediated transport in human Calu3 cells expressing P-glycoprotein assessed as maximum apparent permeability from basolateral to apical side at 50 uM in presence of in presence of 25 uM of p-glycoprotein and MRP transport inducer rifampin. Format: ADME, cell-based, Calu-3.
A short description of series [9]: Apparent passive permeability across human Calu3 cells at 350 ug/ml. Format: ADME, cell-based, Calu-3.
Series [10] is described as follows: Apparent passive permeability across human Calu3 cells at < 10 ug/ml. The format is ADME, cell-based, Calu-3.
The test system of series [11] is P-glycoprotein. In words: (§1) P-glycoprotein-mediated transport in human Calu3 cells expressing P-glycoprotein assessed as maximum apparent permeability from apical to basolateral side at 50 uM. The format is ADME, cell-based, Calu-3.
Series [12] is described as follows: as §1. The format is ADME, cell-based, Calu-3. The following applies: calu-3, 50 µM, TDE = time-dependent effect.
Series [13] relates to P-glycoprotein. The series is described as follows: P-glycoprotein-mediated transport in human Calu3 cells expressing P-glycoprotein assessed as maximum apparent permeability from basolateral to apical side at 50 uM in presence of in presence of 10 uM of p-glycoprotein and MRP transport inducer rifampin. Format: ADME, cell-based, Calu-3.
For series [14], the system named is P-glycoprotein. In words: (§2) P-glycoprotein-mediated transport in human Calu3 cells expressing P-glycoprotein assessed as maximum apparent permeability from basolateral to apical side at 50 uM. The format is ADME, cell-based, Calu-3.
A short description of series [15]: as §2. The conditions noted are these: calu-3, 50 µM, TDE = time-dependent effect. The format is ADME, cell-based, Calu-3.

With `COc1c(N2C[C@@H]3CCCN[C@@H]3C2)c(F)cc2c(=O)c(C(=O)O)cn(C3CC3)c12` [MOXIFLOXACIN], the Km with P-glycoprotein [1] worked out at 64.6 µg/mL. In addition, the Papp A→B at 50 µM in the series on P-glycoprotein [2] is 4.08 ×10⁻⁶ cm/s; in the series on P-glycoprotein [7] it was 4.35 ×10⁻⁶ cm/s; in the series with P-glycoprotein [11] it was 5.25 ×10⁻⁶ cm/s. The peak level in series [3] (Cmax) was 5000 ng/mL. Moreover, the Ratio in series [4] is listed as 2. The Papp B→A with P-glycoprotein [5] was 13.6 ×10⁻⁶ cm/s; in the series with P-glycoprotein [6], 7.9 ×10⁻⁶ cm/s. For the same compound, the Papp B→A at 50 µM with P-glycoprotein [8] amounted to 12.5 ×10⁻⁶ cm/s; in the series with P-glycoprotein [13] it was 11.9 ×10⁻⁶ cm/s; in the series with P-glycoprotein [14] it was 10.5 ×10⁻⁶ cm/s. The apparent permeability (Papp) at 350 ug/ml in series [9] was 7.9 ×10⁻⁶ cm/s. The apparent permeability coefficient (Papp) in [10] is 13.6 ×10⁻⁶ cm/s; in series [12] it was “tde”; in series [15], “tde”.

In general, Km refers to the substrate concentration at which the rate is half of its maximum. A word on the Papp A→B: it is the apparent permeability from the apical to the basolateral side of a cell layer. As usually defined, the Cmax is the maximum level reached in the sampled fluid or tissue. One may read the Papp B→A as the apparent permeability from the basolateral to the apical side of a cell layer. As usually defined, the Papp is a coefficient for how fast a substance crosses the barrier.
